Results reported in publication PMC11565396 (Journal of Lipid Research, 2024).
Where two headings read alike, the source gives them in different places.

Target: EBOV VP40 (6xHis-VP40) (Ebola virus - Mayinga, Zaire, 1976, UniProt Q05128)
Assay: biochemical
Type: binding

Sequence of EBOV VP40 (6xHis-VP40) (Q05128 whole entry, looked up): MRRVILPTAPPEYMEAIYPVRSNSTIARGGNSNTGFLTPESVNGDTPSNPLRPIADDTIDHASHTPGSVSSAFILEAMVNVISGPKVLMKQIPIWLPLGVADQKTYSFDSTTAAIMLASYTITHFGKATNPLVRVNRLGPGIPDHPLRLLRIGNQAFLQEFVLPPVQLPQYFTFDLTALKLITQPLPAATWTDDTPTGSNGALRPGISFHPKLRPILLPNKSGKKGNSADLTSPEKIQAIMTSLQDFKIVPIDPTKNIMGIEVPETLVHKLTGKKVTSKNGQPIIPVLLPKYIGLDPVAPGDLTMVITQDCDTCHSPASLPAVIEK

Structure (SMILES)	Kd (read-out: Kd (apparent))	Kd
CCCCCCCC/C=C\CCCCCCCC(=O)OC[C@H](COP(=O)(O)OC[C@H](N)C(=O)O)OC(=O)CCCCCCC/C=C\CCCCCCCC [DOPS]	311 nM	
CCCCCCCCCCCCCCCC(=O)OCC(COP(=O)(O)OC[C@H](N)C(=O)O)OC(=O)CCCCCCCCCCCCCCC (stereo partly drawn) [DPPS]	10 nM	
CCCCCCCC/C=C\CCCCCCCC(=O)O[C@H](COC(=O)CCCCCCCCCCCCCCC)COP(=O)(O)OC[C@H](N)C(=O)O [POPS]		186 nM
